From paper PMC10688702, “The indole motif is essential for the antitrypanosomal activity of N^5-substituted paullones” (PLOS ONE, 2023) come the findings set out here.

Data set [1] can be described thus: Kinetic aqueous solubility by nephelometry. The settings on record: phosphate-buffered saline, aqueous buffer, kinetic from dmso stock, PBS pH 7.4, 1% DMSO, 25°C, logS = decadic logarithm of molar solubility [M]. The data set is classed as physicochemical. On the procedure: Phosphate-buffered saline pH 7.4 was prepared according to the European Pharmacopeia 10.4 by dissolving 2.38 g sodium monohydrogen phosphate dodecahydrate, 0.19 g potassium dihydrogen phosphate and 8.0 g sodium chloride in demineralised water (to a total volume of 1000 mL). The pH was adjusted to a value of 7.4 with hydrochloric acid. The buffer was filtered through a 0.45 μm membrane filter (Chromafil® Xtra PES-45/25) before use.
The kinetic aqueous solubility was determined by nephelometry. The measurements were performed on the NEPHELOstar Plus, with accompanying software Omega 5.11 and MARS 3.20 (BMG LABTECH, Ortenberg, Germany). Generally, 2 dilution series of 1–2 weighed portions of each substance were measured. First, stock solutions of the compounds were prepared in DMSO. A series of dilutions in DMSO were prepared from one stock solution to obtain at least 3 concentrations below and 3 concentrations above the precipitation point in the measured series. The specific concentrations were usually measured as duplicates.
The 96-well plate (Corning UV transparent flat-bottom 96-well plate, Corning Incorporated, Kennenbunk, ME, USA) was inspected for contamination and scratches and measured without samples prior to the solubility measurement of the compounds. 198 μL of phosphate-buffered saline pH 7.4 was placed in a 96 well plate for each well to be measured. 2 μL of a DMSO solution was added and immediately mixed by moving the pipette plunger. This solution either contained no substance—and served as a blank for the measurement (3 wells)—or the respective DMSO dilution of the substance (2–4 wells). The concentration of the solvent DMSO in each measured solution was 1%. The concentration of the compound corresponds to a 1:100 dilution compared to the respective DMSO dilution. The well plate bottom was cleaned with a lint-free cloth and compressed air and inspected for impurities before measurement. After shaking at 500 rpm for 10 s (double orbital), the measurement was carried out in the nephelometer with the laser intensity set to 80% and beam focus of 2.5 mm at a temperature of 25°C.
The obtained measuring points, relative nephelometric units (RNU) per compound concentration, were used to model two straight lines: one straight line with constant low readings and slope → 0 characterises the concentration range where no precipitation has taken place yet; The other straight line has a steep slope and increase of the RNU per concentration and characterises the concentrations at which precipitation takes place in the respective sample vessels.
The evaluation was carried out by calculating the two straight lines and their point of intersection. Outliers and values in a saturation range for the kick-off curve (usually >800 kRNU) were not used to create the straight lines and are listed separately in the evaluation file. […] The x-value of the intersection of the two straight lines represents the kinetic solubility. The results of two dilution series are additionally indicated as range (in brackets). For measurements of 3 or more series, a mean value with standard deviation is provided. The logS value describes the decadic logarithm of the molar solubility: logS (molar solubility [M]).

Data set [2] deals with trypanothione synthetase of L. infantum (LiTryS) (Leishmania infantum, UniProt A4I2Z3). The data set can be described thus: TryS activity screening assay on recombinant LiTryS. The data set is classed as biochemical. As to conditions: for activity at 30 µM: read-out: LiTryS activity [% at 30 μM]; for IC50: recombinant TryS, errors 2 SD, read-out: LiTryS inhibition [IC50. An outline of the steps:
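N-His-tagged TryS from E. coli, purified by IMAC and SEC; end-point reaction with 150 μM ATP, 2 mM Spd, GSH 0.05 mM (TbTryS) or 0.25 mM (LiTryS), enzyme 3*10^−5 (TbTryS) or 2*10^−5 (LiTryS) μmol*min^-1*mL^-1. Stopped after 15 min with BIOMOL GREEN; A650 activity relative to blank-corrected DMSO control.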

Data set [3] deals with trypanothione synthetase of T. b. brucei (TbTryS). Briefly: TryS activity screening assay on recombinant TbTryS. Type of data set: biochemical. As to conditions: % activity at 30 μM compound, errors 2 SD. On the procedure: TryS from different trypanosomatids was produced in recombinant form with an N-terminal His-tag. The constructs pET-15b TbTryS and pET-28c(+)LiTryS were used to express TryS of T. b. brucei 427 (MITat1.4, GenBank accession protein id CAC87573.1), and L. infantum JPCM5 (GenBank accession protein id CAM69145.1). E. coli strain BL21 (DE3) served as the expression host. For TbTryS, the cells were cultured in a medium based in Terrific Broth and induction with isopropyl 1-thio-β-D-galactopyranoside (IPTG), while for LiTryS, the cells were cultured in ZYM-5052 auto-induction medium. For a detailed description of the expression, see Benítez et al.. The purification was performed by immobilised metal affinity chromatography in a HisTrap Fast Flow column (GE Healthcare) followed by size exclusion chromatography. […] The fractions containing recombinant TryS with ≥95% purity were pooled and concentrated to >10 mg protein/mL using a 10 kDa cut-off Amicon filter (Millipore, Billerica, CA). Glycerol was added at a final concentration of 40% (v/v). The samples were stored at -80°C. Enzyme purity and activity were assessed by SDS-PAGE (12%) under reducing conditions and by the end-point TryS assay (see TryS activity screening assay), respectively. Protein concentration was determined using the bicinchoninic acid assay with bovine serum albumin as standard. The protocols yielded 25–30 mg TbTryS or LiTryS per litre of culture medium and homogeneous specific activity.
For all TryS, ATP was used at 150 μM because of a high background signal at higher concentrations and Spd fixed at 2 mM, in agreement with the intracellular levels calculated from data reported in the literature for trypanosomatids. GSH was adjusted to 0.05 and 0.25 mM for TbTryS and LiTryS, respectively, to avoid substrate inhibition or to approach physiological concentrations. […] Microtiter plate wells were loaded with 5 μL of the test compound, DMSO (reaction control) or a TryS specific inhibitor (inhibition control) and 40 μL of MM solution. The reactions were then started by adding 5 μL of TryS (2 and 3*10^−5 μmol*min^-1*mL^-1 for LiTryS and TbTryS, respectively) and stopped after 15 min with 200 μL BIOMOL® GREEN reagent (Enzo Life Sciences). The compounds used as inhibition control were added at concentrations that inhibited 50% TryS activity: 30 μM and 150 nM MOL2008 for TbTryS and LiTryS, respectively. Blanks were prepared for each condition by adding 5 μL of screening reaction buffer instead of the enzyme. The TryS activity is calculated as follows: TrySactivity%=A650nmCi-A650nmCiB/A650nmE-A650nmEB*100%
A650 nm Ci is the mean absorbance at 650 nm for the reaction test with compound I (Ci), A650 nm CiB is the mean absorbance at 650 nm for the blank control with compound I (CiB), A650 nm E is the mean absorbance at 650 nm for the reaction control with DMSO (E) and A650 nm EB is the mean absorbance at 650 nm for the blank control with DMSO (EB). The errors were expressed as 2 standard deviations (SD), SD estimated as σ^n−1.

≈ marks a conversion by molar mass, not a printed value.

A word on the kinetic solubility: it is the concentration staying in solution when a stock, usually in DMSO, is diluted into the medium. A word on the IC50: it is the point on the concentration scale where inhibition reaches its midpoint.

trypanothione synthetase of L. infantum (LiTryS), sequence (A4I2Z3 entry or part of it): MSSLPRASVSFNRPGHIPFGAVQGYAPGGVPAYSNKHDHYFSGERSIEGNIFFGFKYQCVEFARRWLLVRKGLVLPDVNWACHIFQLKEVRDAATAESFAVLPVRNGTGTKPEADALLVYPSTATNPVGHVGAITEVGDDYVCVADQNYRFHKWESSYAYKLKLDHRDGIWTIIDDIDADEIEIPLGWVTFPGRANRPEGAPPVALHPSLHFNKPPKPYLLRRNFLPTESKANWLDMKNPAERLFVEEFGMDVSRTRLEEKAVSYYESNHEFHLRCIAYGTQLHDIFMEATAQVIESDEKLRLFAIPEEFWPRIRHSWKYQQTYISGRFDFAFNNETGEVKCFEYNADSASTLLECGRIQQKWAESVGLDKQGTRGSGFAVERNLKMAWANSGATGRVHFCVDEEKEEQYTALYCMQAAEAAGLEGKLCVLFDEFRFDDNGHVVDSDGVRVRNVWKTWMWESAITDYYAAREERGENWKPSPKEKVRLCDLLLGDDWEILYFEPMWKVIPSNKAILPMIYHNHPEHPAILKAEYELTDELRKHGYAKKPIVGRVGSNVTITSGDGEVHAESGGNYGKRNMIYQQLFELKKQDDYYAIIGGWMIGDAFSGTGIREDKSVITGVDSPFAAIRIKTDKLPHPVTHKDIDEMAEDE

With `CNCCNC(=O)CN1C(=O)Cc2c([nH]c3ccc(I)cc23)-c2ccc(Cl)cc21` [1f, 2-(3-Chloro-9-iodo-6-oxo-7,12-dihydrobenzo[2,3]azepino[4,5-b]indol-5(6H)-yl)-N-[2-(methylamino)ethyl]acetamide], in data set [1], the solubility (kinetic) at 10 s is 2.95e-05 M (≈ 15.4 µg/mL). For the same molecule, in data set [2], the activity at 30 µM came out at 2.2 ± 0.6% and the IC50 was 70 ± 30 nM. Also, in data set [3], the “TbTryS activity [% at 30 μM]” value was found to be 82.9 ± 6.5%.
For `CNCCNC(=O)CN1C(=O)Cc2c([nH]c3ccc(C(F)(F)F)cc23)-c2ccc(Cl)cc21` [1h, 2-(3-Chloro-6-oxo-9-trifluoromethyl-7,12-dihydrobenzo[2,3]azepino[4,5-b]indol-5(6H)-yl)-N-[2-(methylamino)ethyl]acetamide], in that order: 4.27e-05 M (≈ 19.8 µg/mL), 0%, 60 ± 40 nM and 87.8 ± 4.6%.
For the molecule `CNCCNC(=O)CN1C(=O)Cc2c([nH]c3ccc(Cl)cc23)-c2ccc(Cl)cc21` [1g, 2-(3,9-Dichloro-6-oxo-7,12-dihydrobenzo[2,3]azepino[4,5-b]indol-5(6H)-yl)-N-[2-(methylamino)ethyl]acetamide], in data set [1], the solubility (kinetic) at 10 s was 4.79e-05 M (≈ 20.6 µg/mL). In data set [2], the activity at 30 µM amounted to 2.2% and the IC50 is 390 ± 60 nM. Further, the “TbTryS activity [% at 30 μM]” value in data set [3] came out at 82.8 ± 5.9%.
